Series [1] can be described thus: Fenretinide solubility in bovine serum. Type of series: physicochemical. The following applies: for time required to achieve equilibrium with bovine serum: 37° C. The method, then: Excessive amount of fenretinide was added into fetal bovine serum in polypropylene tubes. The sample was placed on a mechanical circulator and incubated at 37 C avoiding light. At every 24 hours (until fenretinide reached saturation in serum), the sample was centrifuged at 8000 rpm for 10 minutes. 0.2 ml sample was drawn from the supernatant. This volume was immediately replaced using blank serum. The tubes were shook to mix the supernatant and sediment, and then re-placed on the mechanical circulator and incubated at 37 C. The fenretinide concentration in the supernatant was measured by a HPLC assay after extraction using acetonitrile.
A known quantity (0.9, 2.26, 3.97, 8.03, and 20.5 mg) of fenretinide was added to polypropylene tubes containing 15 mL fetal bovine serum. The samples were incubated at 37° C. under constant rotation using a rigged rotator and protection from light. At every 24 h till 7 days, the samples were centrifuged at 8000 rpm for 10 minutes and 200 μl of supernatant was withdrawn. Withdrawn serum sample was replaced with fresh serum sample, mixed properly, and incubated again under similar conditions. To the withdrawn sample (200 μl), 2 mL of acetonitrile was added, agitated overnight on a mechanical shaker with protection from light, passed through 0.45 μm PVDF filter units, and analyzed by HPLC.

Series [2] has as its system cellular terminal differentiation and apoptosis. The following applies: cited from earlier work.
The conditions of series [3]: cited from earlier work.
Series [4] in a line: Water solubility of fenretinide. Type of series: physicochemical.
Series [5] can be described thus: Solubility of fenretinide in simulated saliva. It is filed as physicochemical. The following applies: pH 6.8. The method, then: The extent of solubility enhancement of fenretinide by numerous solubilizers (bile salts, surfactants, hydrophilic polymers, and co-solvents) was studied by determining the solubility in simulated saliva in the presence of 0.5, 1, 2, and 5% w/v solubilizers. Briefly, an excess amount of fenretinide was added into separate amber color ampoules containing 1-mL 0.5, 1, 2, and 5% w/v solutions of solubilizers (prepared using N2-purged simulated saliva) and sealed under vacuum in order remove the oxygen from the head-space. The ampoules were then placed in an incubator maintained at 37° C. and shaken at 240 RPM for 72 h (this duration was determined to be sufficient to reach the equilibrium). After 72 h, the ampoules were broken, mixture was passed through 0.45 μm PVDF filter units (Millipore, USA), diluted suitably with respective solubilizer solution, and the amount of fenretinide solubilized in simulated saliva was determined by HPLC.

≈ marks a conversion by molar mass, not a printed value.

With `CC1=C(/C=C/C(C)=C/C=C/C(C)=C/C(=O)Nc2ccc(O)cc2)C(C)(C)CCC1` [Fenretinide, 4-hydroxy(phenyl)retinamide], the “time required to achieve equilibrium with bovine serum” value in series [1] (0.9 mg fenretinide in 15 mL serum) was determined as 7 days. Further, in series [1] (8.03 mg fenretinide in 15 mL serum), the “time required to achieve equilibrium with bovine serum” value is recorded as 4 days. Besides, the “solubility of fenretinide in bovine serum” value in series [1] (fetal bovine serum, 37° C. (Example 3, FIG. 10A)) was 21 µg/mL. The solubility at 6 days in series [1] (plasma or biological fluid, thermodynamic from solid, fetal bovine serum, 37 C, after 6 days incubation (Example 2)) was 20.9 ± 1.02 µg/mL (≈ 53.5 µM). In series [1] (plasma or biological fluid, thermodynamic from solid, fetal bovine serum, 37° C. (Example 3, FIG. 10A)), this compound came in with a solubility of 21 ± 1 µg/mL (≈ 53.6 µM). For the same compound, in series [2], the “in vitro concentration inducing apoptosis” value was over 5 µM and the “in vitro concentration inducing cellular terminal differentiation” value is under 3 µM. In series [3], the intrinsic aqueous solubility was 9.8 ng/mL. For the same compound, the water solubility entry in series [4] was “below HPLC detection limit”. In series [5], the “solubility in simulated saliva” value is on record as “insoluble”.

One may read the solubility as how much of the substance goes into solution per volume. A high value points to much dissolved substance.

Source of the values: US10758619B2, “Controlled release mucoadhesive systems” (THE OHIO STATE UNIVERSITY, priority 2010, dated 2020).
